Data as given in US5624923A, “Tricyclic diazepine vasopressin antagonists and oxytocin antagonists” (priority 1995, dated 1997).
pIC50: −log10 of the molar value.

Assays:
Rat Hepatic V1 Receptors = target: T1, Rat Hepatic V1 Receptors (Rattus norvegicus, UniProt P30560); assay: Binding Assay to Rat Hepatic V1 Receptors; settings: for pIC50: rat liver membranes, read-out: V1 IC50; for inhibition at 10 µM: 2 h, rat
T1 construct: Rat liver plasma membranes expressing the vasopressin V1 receptor subtypes; from tissue; host or cells: rat liver plasma membranes

oxytocin receptors = target: T2, oxytocin receptors (Rattus norvegicus, UniProt P70536); assay: Oxytocin Receptor Binding; settings: for pIC50: 1.0 nM [3H]oxytocin
T2 construct: The uteri are dissected out, cleaned of fat and connective tissues; from tissue; host or cells: uterus of DES-treated female Sprague-Dawley rats
T2 sequence (P70536 1-388): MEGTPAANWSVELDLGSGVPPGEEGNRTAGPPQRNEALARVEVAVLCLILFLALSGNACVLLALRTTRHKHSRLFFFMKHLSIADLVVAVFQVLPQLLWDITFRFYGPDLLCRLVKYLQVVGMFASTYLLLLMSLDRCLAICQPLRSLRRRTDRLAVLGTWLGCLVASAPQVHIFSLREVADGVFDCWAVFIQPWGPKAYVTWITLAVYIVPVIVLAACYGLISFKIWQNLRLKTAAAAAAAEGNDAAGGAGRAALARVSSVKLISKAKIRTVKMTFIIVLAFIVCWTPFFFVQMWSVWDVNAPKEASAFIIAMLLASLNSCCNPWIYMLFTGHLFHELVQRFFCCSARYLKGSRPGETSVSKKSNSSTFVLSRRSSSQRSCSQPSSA
Summary of the method: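 Membranes from uteri of DES-primed (0.3 mg/kg i.m., 18 h) female Sprague-Dawley rats. Competition with 1.0 nM [3H]oxytocin in 50 mM Tris.HCl pH 7.4, 5 mM MgCl2 with protease inhibitors, 60 min at 22 °C, filtration read-out. Non-specific binding with 1.0 uM unlabeled OT; IC50 calculated.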

Vasopressin V1 = Vasopressin V1 Antagonist Activity in Conscious Rats (vasopressin vasopressor response); assay type: in vivo, rat
Summary of the method: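 Conscious rats are restrained supine, and under local 2% procaine a PE 10/20 cannula is passed through the ventral caudal tail artery into the lower abdominal aorta. The caudal vein is cannulated for intravenous dosing. Blood pressure is recorded with a Statham P23Db transducer, and vasopressin injections are repeated after compound dosing. Percent antagonism is calculated against the pre-drug vasopressor response taken as 100%.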

T1 sequence (P30560 whole entry): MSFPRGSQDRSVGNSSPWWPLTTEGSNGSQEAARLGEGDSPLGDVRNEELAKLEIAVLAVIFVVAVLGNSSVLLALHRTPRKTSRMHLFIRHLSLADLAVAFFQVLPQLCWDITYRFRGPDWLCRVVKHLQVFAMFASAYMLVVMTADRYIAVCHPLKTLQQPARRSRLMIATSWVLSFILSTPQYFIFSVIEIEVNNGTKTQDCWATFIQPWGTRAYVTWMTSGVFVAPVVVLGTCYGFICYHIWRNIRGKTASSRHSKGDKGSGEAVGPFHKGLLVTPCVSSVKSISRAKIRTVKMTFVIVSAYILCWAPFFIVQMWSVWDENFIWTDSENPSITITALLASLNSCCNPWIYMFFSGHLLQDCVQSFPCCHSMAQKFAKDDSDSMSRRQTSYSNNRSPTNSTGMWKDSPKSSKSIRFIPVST

Row | SMILES | pIC50 (Rat Hepatic V1 Receptors) | pIC50 (oxytocin receptors) | inhibition at 10 µM (oxytocin receptors; [3H]oxytocin) [%] | Max. % Inhibition (Vasopressin V1; 30 mg/kg i.v.) [%] | Time (of max. % inhibition) (Vasopressin V1; 30 mg/kg i.v.) [min] | Max. % Inhibition (Vasopressin V1; 10 mg/kg i.v.) [%] | Time (of max. % inhibition) (Vasopressin V1; 10 mg/kg i.v.) [min] | inhibition at 2.5 µM (oxytocin receptors; dose 2.5 μM, [3H]oxytocin) [%] | Max. % Inhibition (Vasopressin V1; 30 mg/kg p.o.) [%] | Time (of max. % inhibition) (Vasopressin V1; 30 mg/kg p.o.) [min] | inhibition at 10 µM (Rat Hepatic V1 Receptors) [%] | Max. % Inhibition (Vasopressin V1; 10 mg/kg p.o.) [%] | Time (of max. % inhibition) (Vasopressin V1; 10 mg/kg p.o.) [min]
1 | O=C(Nc1ccc(C(=O)N2Cc3ccnn3Cc3ccccc32)cc1)c1ccc(Cl)cc1Cl [Example 217, N-[4-(4H-Pyrazolo[5,1-c][1,4]benzo-diazepin-5(10H)-ylcarbonyl)phenyl]-2,4-dichlorobenzamide] | 7.17 | 5.92 | 87 | 57 | 90 |  |  |  |  |  |  |  | 
2 | O=C(Nc1ccc(C(=O)N2Cc3cccn3Cc3ccccc32)cc1)c1c(Cl)cccc1Cl [Example 469, N-[4-(5H-pyrrolo[2,1-c][1,4]benzodiazepin-10(11H)-ylcarbonyl)phenyl]-2,6-dichlorobenzamide] | 7.03 | 6.58 | 96 |  |  | 69 | 30 |  |  |  |  |  | 
3 | Cc1ccccc1C(=O)Nc1ccc(C(=O)N2Cc3cccn3Cc3ccccc32)c(Cl)c1 [Example 470] | 7.27 | 6.66 |  |  |  | 87 | 180 | 92 | 69 | 180 |  |  | 
4 | O=C(Nc1ccc(C(=O)N2Cc3cccn3Cc3ccccc32)c(Cl)c1)c1ccc(Cl)cc1Cl [Example 471] | 7.35 | 6.46 | 99 | 85 | 90 |  |  |  |  |  |  |  | 
5 | Cc1ccccc1C(=O)Nc1c(C)cc(C(=O)N2Cc3cccn3Cc3ccccc32)cc1C [Example 472] | 6.05 |  | 0 | 36 | 90 |  |  |  |  |  |  |  | 
6 | O=C(Nc1ccc(C(=O)N2Cc3cccn3Cc3ccccc32)cc1)c1cccc(C(F)(F)F)c1 [Example 474, N-[4-(5H-pyrrolo[2,1-c][1,4]benzodiazepin-10(11H)-ylcarbonyl)phenyl]-3-(trifluoromethyl)benzamide] | 7.06 |  | 18 | 80 | 60 |  |  |  |  |  |  |  | 
7 | O=C(Nc1ccc(C(=O)N2Cc3cccn3Cc3ccccc32)cc1)c1sccc1Cl [Example 476, N-[4-(5H-pyrrolo[2,1-c][1,4]benzodiazepin-10(11H)-ylcarbonyl)phenyl]-3-chlorothiophene-2-carboxamide] | 7.08 | 6.09 | 94 |  |  | 78 | 30 |  | 19 | 180 |  |  | 
8 | Cc1c(F)cccc1C(=O)Nc1ccc(C(=O)N2Cc3cccn3Cc3ccccc32)c(Cl)c1 [Example 481, N-[4-(5H-pyrrolo[2,1-c][1,4]benzodiazepin-10(11H)-ylcarbonyl)-3-chlorophenyl]-3-fluoro-2-methylbenzamide] | 6.00 | 6.62 | 88 |  |  |  |  |  | 58 | 80 |  |  | 
9 | Cc1ccc(F)cc1C(=O)Nc1ccc(C(=O)N2Cc3cccn3Cc3ccccc32)c(Cl)c1 [Example 482, N-[4-(5H-pyrrolo[2,1-c][1,4]benzodiazepin-10(11H)-ylcarbony)-3-chlorophenyl]-5-fluoro-2-methylbenzamide] | 6.39 | 6.90 | 97 |  |  | 40 | 60 |  |  |  |  |  | 
10 | Cc1cccc(NC(=O)c2ccc(C(=O)N3Cc4cccn4Cc4ccccc43)cc2)c1C [Example 485, N-(2,3-Dimethylphenyl)-4-(5H-pyrrolo[2,1-c][1,4]benzodiazepin-10(11H)-ylcarbonyl)benzamide] | 6.62 | 5.66 | 86 | 64 | 60 |  |  |  |  |  |  |  | 
11 | COC(=O)c1ccc(C(=O)Nc2ccc(C(=O)N3Cc4cccn4Cc4ccccc43)cc2)cc1 [Example 489] |  |  | 44 | 39 | 120 |  |  |  |  |  | 61 |  | 
12 | CN(C)CN(C(=O)c1ccc(Cl)cc1Cl)c1ccc(C(=O)N2Cc3cccn3Cc3ccccc32)cc1 [Example 490, N-[(Dimethylamino)methyl]-N-[4-(5H-pyrrolo[2,1-c][1,4]benzodiazepin-10(11H)-ylcarbonyl)phenyl]-2,4-dichlorobenzamide] | 7.85 | 6.52 | 99 |  |  | 74 | 90 |  |  |  |  | 65 | 120
13 | Cc1c(F)cccc1C(=O)Nc1ccc(C(=O)N2Cc3ccnn3Cc3ccccc32)cc1 [Example 517, N-[4-(4H-Pyrazolo[5,1-c][1,4]benzodiazepin-5(10H)-ylcarbonyl)phenyl]-3-fluoro-2-methylbenzamide] | 6.68 | 6.49 | 91 |  |  | 81 | 90 |  |  |  |  |  | 
14 | O=C(Nc1ccc(C(=O)N2Cc3ccc(CO)n3Cc3ccccc32)cc1)c1ccc(Cl)cc1Cl [Example 581, 2,4-Dichloro-N-[4-[[3-(hydroxymethyl)-5H-pyrrolo[2,1-c][1,4]benzodiazepin-10(11H)-yl]carbonyl]phenyl]benzamide] | 7.68 | 6.70 | 99 |  |  | 94 | 30 |  | 79 | 30 |  |  | 
15 | O=C(Nc1ccc(C(=O)N2Cc3ccc(Cn4ccnc4)n3Cc3ccccc32)cc1)c1ccc(Cl)cc1Cl [Example 582, 2,4-Dichloro-N-[4-[[3-(1H-imidazol-1-ylmethyl)-5H-pyrrolo[2,1-c][1,4]benzodiazepin-10(11H)-yl]carbonyl]phenyl]benzamide] | 6.89 | 6.17 | 96 |  |  | 75 | 170 |  |  |  |  |  | 
16 | NC(=O)CNC(C(=O)Nc1ccc(C(=O)N2Cc3cccn3Cc3ccccc32)cc1)c1ccccc1 (stereo not shown) [Example 585] | 6.55 | 5.33 | 70 |  |  | 56 | 30 |  |  |  |  |  | 
17 | CC(=O)OC(C(=O)Nc1ccc(C(=O)N2Cc3cccn3Cc3ccccc32)cc1)c1ccccc1 (stereo not drawn) [Example 587, α-(Acetyloxy)-N-[4-(5H-pyrrolo[2,1-c][1,4]benzodiazepin-10(11H)-ylcarbonyl)phenyl]benzeneacetamide] | 7.17 | 5.10 | 56 |  |  | 75 | 60 |  |  |  |  |  | 
18 | O=C(CN1CCOCC1)Nc1ccc(C(=O)N2Cc3cccn3Cc3ccccc32)cc1 [Example 590, N-[4-(5H-pyrrolo[2,1-c][1,4]benzodiazepin-10(11H)-ylcarbonyl)phenyl]-4-morpholineacetamide] |  |  | 12 | 89 | 120 |  |  |  |  |  | 89 |  | 
19 | COC(=O)c1ccc2n1Cc1ccccc1N(C(=O)c1ccc(NC(=O)c3ccc(Cl)cc3Cl)cc1)C2 [Example 593] | 6.68 | 5.96 | 82 | 67 | 60 |  |  |  |  |  |  |  | 
20 | O=C(Nc1ccc(C(=O)N2Cc3ccc(C(=O)C(F)(F)F)n3Cc3ccccc32)cc1)c1ccccc1C(F)(F)F [Example 594] |  |  | 19 | 36 | 180 |  |  |  |  |  | 78 |  | 
